ChEMBL document CHEMBL1201862, “PubChem BioAssay data set” (2004)
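Dose response: 5 concentrations. Exposure: 48 h. Format: 96-well plates. Endpoint: linear interpolation; highest concentration if not reached. Here, GI50 denotes the concentration required for 50% inhibition of growth.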 The source made the active and inactive calls. Cut-off read from the data, not from the text of the source: active = GI50 up to about 1.1 µM and inactive = higher.

What was measured:
Test in all cases: NCI-60 cell line screen, 48 h
TK-10 = system: TK-10
SNB-19 = system: SNB-19
KM12 = system: KM12
RXF 393 = system: RXF 393
MCF7 = system: MCF7
CAKI-1 = system: CAKI-1
UO-31 = system: UO-31
SN12C = system: SN12C
Hs-578T = system: Hs-578T
SNB-75 = system: SNB-75
HOP-92 = system: HOP-92
NCI-H23 = system: NCI-H23
NCI-H522 = system: NCI-H522
SK-MEL-28 = system: SK-MEL-28
T47D = system: T47D
A498 = system: A498
RPMI-8226 = system: RPMI-8226
ACHN = system: ACHN
MDA-MB-231 = system: MDA-MB-231
M14 = system: M14

Measured: GI50

O=C1C=CC(=O)c2c1ccc1c3ccccc3n(-c3ccccc3)c21
inactive: TK-10 7.66 µM | SNB-19 19.5 µM | KM12 17.9 µM | RXF 393 1.71 µM | MCF7 2.11 µM | CAKI-1 7.18 µM | UO-31 11.9 µM | SN12C 11.5 µM | Hs-578T 17.7 µM | SNB-75 18.9 µM | HOP-92 2.61 µM | NCI-H23 15.4 µM | NCI-H522 1.64 µM | SK-MEL-28 3.34 µM | T47D 2.05 µM | A498 17.9 µM | RPMI-8226 1.26 µM | ACHN 3.26 µM | MDA-MB-231 4.45 µM | M14 7.78 µM

COc1ccc2c(-c3ccc(OCCN(C)C)cc3)c(Oc3ccccc3)c(=O)oc2c1
inactive: TK-10 9.79 µM | SNB-19 5.86 µM | KM12 4.78 µM | RXF 393 4.76 µM | MCF7 3.57 µM | CAKI-1 8.67 µM | UO-31 4 µM | SN12C 6.71 µM | Hs-578T 6.18 µM | SNB-75 6.95 µM | HOP-92 9.53 µM | NCI-H23 12 µM | NCI-H522 3.48 µM | SK-MEL-28 2.31 µM | T47D 7.85 µM | A498 13.4 µM | RPMI-8226 4.25 µM | ACHN 10.2 µM | MDA-MB-231 3.15 µM | M14 1.64 µM

CCC#CCCCCCCCCC(F)C(=O)O (stereo not given)
inactive: TK-10 > 100 µM | SNB-19 > 100 µM | KM12 > 100 µM | RXF 393 > 100 µM | MCF7 > 100 µM | CAKI-1 > 100 µM | UO-31 > 100 µM | SN12C > 100 µM | Hs-578T > 100 µM | SNB-75 > 100 µM | HOP-92 > 100 µM | NCI-H23 > 100 µM | NCI-H522 > 100 µM | SK-MEL-28 > 100 µM | T47D > 100 µM | A498 > 100 µM | RPMI-8226 > 100 µM | ACHN > 100 µM | MDA-MB-231 > 100 µM | M14 > 100 µM
